Patent US20210181109A1 (FUJIFILM Corporation, priority 2018, published 2021)
Where two headings read alike, the source gives them in different places.

What was measured:
[1] = cited from earlier work
[2] = Average score of NAC and NAL depletion and prediction of skin allergenicity, UV method; conditions: for Average score: test substance solution 1 mmol/L; for Mean Depletion (%) (average score) / determination of skin allergenicity from average score: UV method; for determination of skin allergenicity from average score: criterion […]
Experimental: (§1) The average value (Average Score) of NAC and NAL depletion percents is calculated. In the resultant value, the second decimal place is rounded off.
(§2) Average value (Average Score) of NAC and NAL depletion percents=(NAC depletion percent+NAL depletion percent)/2
(§3) The depletion percent of at least one of NAC or NAL or the average score of the depletion percents of NAC and NAL is calculated, and whether or not the test substances are “allergenic substances” or “non-allergenic substances” is determined:
(§4) (1) in a case of performing evaluation based on the average value of the depletion percent of NAC and the depletion percent of NAL,
(§5) In the following Tables, S represents as being an allergenic substance and NS represents as being a non-allergenic substance.

[3] = Average score of NAC and NAL depletion and prediction of skin allergenicity, fluorescence method; conditions: for Average score: test substance solution 1 mmol/L; for determination of skin allergenicity from average score: criterion […]
Experimental: as §1, §2, §3, §4, §5

[4] = NAC depletion percent, HPLC-fluorescence detection
Experimental: (§6) 1) To a 50 mL vessel, 11.6 mg (±0.1 mg) of NAC is weighed; to this, a 25 mL measuring pipet is used to add 20 mL of 100 mmol/L phosphate buffer (pH: 8.0); and the content is gently stirred using a test tube mixer to achieve dissolution (2 mmol/L). 2) To a 500 mL vessel, 149.5 mL of this buffer is added using a 50 mL measuring pipet; to this, 0.5 mL of the above-described 2 mmol/L NAC solution is added; and the content is mixed by inversion to achieve 300-fold dilution (6.667 μmon).
(§7) The test substance undiluted solution is defined as an “undiluted solution”, and used. Incidentally, this “undiluted solution” may be appropriately diluted to, for example, 1/10, 1/100, or 1/1000, using an appropriate solvent, and the resultant solution may be used.
(§8) Subsequently, the solution having the maximum dissolution concentration is defined as an “undiluted solution”, and tested. Incidentally, this “undiluted solution” may be appropriately diluted to, for example, 1/10, 1/100, or 1/1000, using an appropriate solvent, and the resultant solution may be used.
(§9) The test substance is prepared at 1 mmol/L in any of solvents that are water, acetonitrile, acetone, and a 5 mass % dimethyl sulfoxide (DMSO)/acetonitrile solution and used as a test substance solution. As the solvent, a solvent in which the test substance dissolves at 1 mmol/L is used; when the test substance is soluble in a plurality of solvents, the solvent is selected in the following order of decreasing precedence: water, acetonitrile, acetone, and 5 mass % DMSO/acetonitrile.
(§10) Test substance solutions are prepared on a 96-well plate (U96 PP-0.5 ML NATURAL, Thermo Fisher Scientific Inc. (NUNC)) mainly using a 12-channel pipette, and a reagent is added in accordance with the following formula.
(§11) Nucleophilic reagent (NAC and NAL): 150 μL
(§12) Test substance solution: 50 μL
(§13) The plate is tightly sealed using a plate sealing (Resistant embossed seal, SHIMADZU GLC Ltd.), and stirred using a plate shaker (Titramax 100, Heidolph Instruments GmbH & CO. KG). The plate is subjected to spinning down using a centrifuge, and then to incubation at 25° C., for 24 hours, in a light-shielded state.
(§14) After the incubation for 24 hours, the plate sealing is removed; to each sample, 50 µL of the reaction stopping solution is added to stop the reaction.
(§15) The HPLC measurement conditions for the nucleophilic reagents are as follows.
(§16) From the average values (each, n=3) of peak areas of the post-reaction unreacted NAC or NAL and the blank-test (after performing the reaction step without addition of the test substances) NAC or NAL, the following formula is used to calculate the depletion percent of NAC or NAL.
(§17) NAC depletion percent (% depletion)=[1−(Average value of peak areas of post-reaction unreacted NAC/Average value of peak areas of blank-test (after performing the reaction step without addition of the test substances) NAC)]×100
(§18) The average value of peak areas of the post-reaction unreacted NAC is the average value of areas obtained by measuring three times post-reaction unreacted NAC. The average value of peak areas of blank-test (after performing the reaction step without addition of the test substances) NAC is the average value of areas obtained by measuring three times blank-test (after performing the reaction step without addition of the test substances) NAC.
(§19) The reactions were each performed on a 96-well plate, and the number of samples of each case was set to n=3. In addition, as controls, reaction solutions including the solvent alone were prepared. The reaction solutions were prepared so as to have a NAC or NAL concentration of 5 μmon. To the reaction solutions after the lapse of 24 hours, a trifluoroacetic acid (TFA) aqueous solution was added such that the final concentration became 0.5% (v/v) TFA. Subsequently, HPLC was performed for measurements by two detection methods that were light absorption detection using a photodiode array (PDA) detector, and fluorescence detection using a fluorescence detector.

[5] = NAL depletion percent, HPLC-fluorescence detection
Experimental: as §6, with “12.6” for “11.6”, “NAL” for “NAC”, “10.2);” for “8.0);”, “mixture” for “mixer”, “mmol/L NAL solution).” for “mmol/L).”, “μmol/L).” for “μmon).”
as §7, §8, §9, §10, §11, §12, §13, §14, §15, §16
(§20) NAL depletion percent (% depletion)=[1−(Average value of peak areas of post-reaction unreacted NAL/Average value of peak areas of blank-test (after performing the reaction step without addition of the test substances) NAL)]×100
(§21) The average value of peak areas of post-reaction unreacted NAL is the average value of areas obtained by measuring three times post-reaction unreacted NAL. The average value of peak areas of blank-test (after performing the reaction step without addition of the test substances) NAL is the average value of areas obtained by measuring three times blank-test (after performing the reaction step without addition of the test substances) NAL.
as §19

[6] = NAC depletion percent, HPLC-UV detection (281 nm)
Experimental: as §6, §7, §8, §9, §10, §11, §12, §13, §14, §15, §16, §17, §18, §19

[7] = NAL depletion percent, HPLC-UV detection (281 nm)
Experimental: as §6, with “12.6” for “11.6”, “NAL” for “NAC”, “10.2);” for “8.0);”, “mixture” for “mixer”, “mmol/L NAL solution).” for “mmol/L).”, “μmol/L).” for “μmon).”
as §7, §8, §9, §10, §11, §12, §13, §14, §15, §16, §20, §21, §19

[8] = single substance, Reference (UV method)
[9] = single substance, fluorescence method
[10] = single substance, test substance solution 1 mmol/L, fluorescence method
[11] = single substance, test substance solution 1 mmol/L, Reference (UV method)
[12] = known values, LLNA-test-based classification, − for non-allergenic substances
[13] = single substance, Reference (UV method), criterion average score […]
[14] = single substance, fluorescence method, criterion average score […]
[15] = Fluorescence method, non-allergenic substance
[16] = Reference (UV method), non-allergenic substance
[17] = 1/1 (undiluted solution), fluorescence method
[18] = 1/10 diluted solution, fluorescence method
[19] = 1/1 (undiluted solution), fluorescence method, 25° C. 24 hours
[20] = 1/1 (undiluted solution), UV method
[21] = 1/10 diluted solution, UV method

SMILES	EC3 (%) ([1]; in vivo)	Average score [2, 8] [%]	Average score [3, 9] [%]	NAC depletion (%) [4, 10] [%]	NAL depletion (%) [5, 10] [%]	NAC depletion (%) [6, 11] [%]	NAL depletion (%) [7, 11] [%]	EC3 (%) [1, 12] [%]	Prediction result [2, 13]	Prediction result [3, 14]	also measured
O=c1[nH]sc2ccccc12 [1,2-Benzisothiazolin-3-one]	2.3%	50.2	49.5	98.8	0.2	100.0	0.4				Prediction result [2]: S (key: S represents as being an allergenic substance; NS represents as being a non-allergenic substance); Prediction result [3]: S (key: S represents as being an allergenic substance; NS represents as being a non-allergenic substance)
CCC(=O)C=Cc1ccc(OC)cc1 [1-(4-Methoxyphenyl)-1-penten-3-one]		2.9	0.8	1.2	0.4	1.6	4.2	9.3	NS (NS represents as being a non-allergenic substance)	NS (NS represents as being a non-allergenic substance)	
CCCCO [1-Butanol]	−										NAC depletion (%) [4, 15]: 2.1%; NAL depletion (%) [5, 15]: 0.3%; NAC depletion (%) [6, 16]: 0.1%; NAL depletion (%) [7, 16]: 0.8%
CC(C)(C)C(=O)CC(=O)C(C)(C)C [2,2,6,6-Tetramethyl-3,5-heptanedione]		1.1	0.0	0.0	0.0	0.5	1.6	27	NS (NS represents as being a non-allergenic substance)	NS (NS represents as being a non-allergenic substance)	
CCC=CC=CC=O [2,4-Heptadienal]		42.9	29.0	46.2	11.8	35.8	50.1	4	S (S represents as being an allergenic substance)	S (S represents as being an allergenic substance)	
Sc1nc2ccccc2s1 [2-Mercaptobenzothiazole]		28.4	32.7	65.5	0.0	56.6	0.3	1.7	S (S represents as being an allergenic substance)	S (S represents as being an allergenic substance)	
Cn1sccc1=O [2-Methyl-2H-isothiazol-3-one]		50.5	51.6	98.5	4.6	94.0	7.0	1.9	S (S represents as being an allergenic substance)	S (S represents as being an allergenic substance)	
CC(C=O)c1ccccc1 (centres unmarked) [2-Phenylpropionaldehyde]		6.3	7.9	8.5	7.3	8.0	4.6	6.3	S (S represents as being an allergenic substance)	S (S represents as being an allergenic substance)	
C=CCc1ccc(OC)cc1 [4-Allylanisole]		15.4	7.9	15.0	0.7	27.0	3.9	18	S (S represents as being an allergenic substance)	S (S represents as being an allergenic substance)	
C=O [Formaldehyde]	0.61%										Prediction result [2]: S (key: S represents as being an allergenic substance; NS represents as being a non-allergenic substance); Prediction result [3]: S (key: S represents as being an allergenic substance; NS represents as being a non-allergenic substance)
CCCOC(=O)c1ccc(O)cc1 [Propylparaben]	−										NAC depletion (%) [4, 15]: 0.5%; NAL depletion (%) [5, 15]: 4.4%; NAC depletion (%) [6, 16]: 0.1%; NAL depletion (%) [7, 16]: 1.9%
CC[C@H](CC[C@@H](C)[C@H]1CC[C@H]2[C@@H]3CC=C4C[C@@H](O)CC[C@]4(C)[C@H]3CC[C@]12C)C(C)C [β-sitosterol, β-Sitosterol]											Mean Depletion (%) (average score) ([2]; 1/1 (undiluted solution)): 0.0%; determination of skin allergenicity from average score ([2]; 1/1 (undiluted solution)): not having skin allergenicity; Mean Depletion (%) (average score) ([2]; 1/10 diluted solution): 1.9%; determination of skin allergenicity from average score ([2]; 1/10 diluted solution): not having skin allergenicity; Mean Depletion (%) (average score) [3, 17]: 0.1%; determination of skin allergenicity from average score [3, 17]: not having skin allergenicity; Mean Depletion (%) (average score) [3, 18]: 0.3%; determination of skin allergenicity from average score [3, 18]: not having skin allergenicity; NAC depletion (%) [4, 19]: 0.0%; NAC depletion (%) [4, 18]: 0.6%; NAL depletion (%) [5, 19]: 0.1%; NAL depletion (%) [5, 18]: 0.0%; NAC depletion (%) [6, 20]: 0.0%; NAC depletion (%) [6, 21]: 3.9%; NAL depletion (%) [7, 20]: 0.0%; NAL depletion (%) [7, 21]: 0.0%
